Experimental data as given in patent publication US20240000748A1, “FORMULATIONS AND METHODS FOR TREATING ACUTE CANNABINOID OVERDOSE” (Anebulo Pharmaceuticals, Inc., priority 2020, published 2024).

How the values were obtained:
rat = test: Repeated dose (28 day) toxicity study in rat; type: in vivo; conditions: repeated dose 28 day
Experimental: Repeated dose (28 day) toxicity studies were conducted using ANEB-001 in two species, rat and primate, selected on the basis of acceptable bioavailability and comparison of metabolite profiles with those in human liver microsomes.

C57 mice = test: Reversal of THC-induced hypolocomotion in mice; type: in vivo; conditions: 30 min pre-test
Experimental: Reversal of THC-induced hypolocomotion in mice: Six C57 mice (Charles River, Wilmington, MA) were administered […] (THC) 3 mg/kg ip, 10 min pre-test. […] In this apparatus, four qualitatively different measures of locomotor activity are automatically scored. […] The magnitude of the effect is similar to that elicited by rimonabant given at 3 mg/kg po, and given 30 min pre-test.

Row | Structure (SMILES) | findings at dose levels of 75 mg/kg/day (rat; 75 mg/kg/day) | no observed adverse effect level (rat; highest dose tested) | action of THC on the total active time parameter of locomotor measures (C57 mice; 30 mg/kg orally, THC 3 mg/kg ip 10 min pre-test, 15 min in locomotor activity cages) | magnitude of the effect on THC-induced hypolocomotion (compared with ANEB-001) (C57 mice; 3 mg/kg po)
1 | CC(C)(C)NC(=O)N1CC(O[C@H](c2ccc(Cl)cc2)c2ccccc2C(F)(F)F)C1 [ANEB-001, 3-[(R)-2-(trifluoromethyl)-4′-chlorobenzhydryloxy]-N-(tert-butyl)azetidine-1-carboxamide] | hepatic changes consistent with an adaptive response | 75 mg/kg/day | significantly reversed | –
2 | Cc1c(C(=O)NN2CCCCC2)nn(-c2ccc(Cl)cc2Cl)c1-c1ccc(Cl)cc1 [rimonabant, reference compound] | – | – | – | similar
